Test results from ChEMBL document CHEMBL1201862, “PubChem BioAssay data set” (2004).
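Test compounds were applied to cells in 96-well plates for 48 hours at 5 doses. At the GI50, growth is halved.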 The source made the active and inactive calls. Rule as the data show it: active = GI50 up to about 1.1 µM and inactive = higher.

What was measured:
Assay in all cases: DTP human tumour cell line panel, 48 h
UACC-257 = tested on: UACC-257
NCI-H226 = tested on: NCI-H226
SF-295 = tested on: SF-295
HOP-62 = tested on: HOP-62
SN12C = tested on: SN12C
HT-29 = tested on: HT-29
SK-OV-3 = tested on: SK-OV-3
SR = tested on: SR
U-251 = tested on: U-251
MDA-MB-435 = tested on: MDA-MB-435
IGROV-1 = tested on: IGROV-1
LOX IMVI = tested on: LOX IMVI
UACC-62 = tested on: UACC-62
OVCAR-8 = tested on: OVCAR-8
M14 = tested on: M14
T47D = tested on: T47D
SNB-19 = tested on: SNB-19
SK-MEL-2 = tested on: SK-MEL-2
SNB-75 = tested on: SNB-75
UO-31 = tested on: UO-31

| Compound | GI50 (UACC-257) | GI50 (NCI-H226) | GI50 (SF-295) | GI50 (HOP-62) | GI50 (SN12C) | GI50 (HT-29) | GI50 (SK-OV-3) | GI50 (SR) | GI50 (U-251) | GI50 (MDA-MB-435) | GI50 (IGROV-1) | GI50 (LOX IMVI) | GI50 (UACC-62) | GI50 (OVCAR-8) | GI50 (M14) | GI50 (T47D) | GI50 (SNB-19) | GI50 (SK-MEL-2) | GI50 (SNB-75) | GI50 (UO-31) |
| --- | --- | --- | --- | --- | --- | --- | --- | --- | --- | --- | --- | --- | --- | --- | --- | --- | --- | --- | --- | --- |
| CN(Cc1ccccc1)/C(=N\C#N)N(Cc1ccccc1)Cc1ccccc1 | 21.6 µM (inactive) | 28.8 µM (inactive) | 14.1 µM (inactive) | 27.7 µM (inactive) | 34.7 µM (inactive) | 14.7 µM (inactive) | 29 µM (inactive) | 0.0383 µM (active) | 28.2 µM (inactive) | 15.1 µM (inactive) | 24.3 µM (inactive) | 16.4 µM (inactive) | 20.4 µM (inactive) | 29.9 µM (inactive) | 20.3 µM (inactive) | 27.7 µM (inactive) | 40.2 µM (inactive) | 20.3 µM (inactive) | 30.5 µM (inactive) | 26.5 µM (inactive) |
| c1ccc2c3nnc(c2c1)SCCCSc1nnc(c2ccccc12)SCCCS3 | > 100 µM (inactive) | 24.3 µM (inactive) | 92.3 µM (inactive) | 24.2 µM (inactive) | > 100 µM (inactive) | > 100 µM (inactive) | > 100 µM (inactive) | 84.1 µM (inactive) | 76 µM (inactive) | > 100 µM (inactive) | 47.2 µM (inactive) | > 100 µM (inactive) | 31.7 µM (inactive) | 36.7 µM (inactive) | 90.8 µM (inactive) | > 100 µM (inactive) | 28.8 µM (inactive) | 40.1 µM (inactive) | 25.2 µM (inactive) | > 100 µM (inactive) |
| CCOP(=O)(OCC)C(Nc1ccc(Br)cc1)c1cccc([N+](=O)[O-])c1 (stereo not given) | > 10 µM (inactive) | 16.7 µM (inactive) | 12.9 µM (inactive) | 17.5 µM (inactive) | 18.8 µM (inactive) | 16.8 µM (inactive) | 14.6 µM (inactive) | 18.1 µM (inactive) | 18.2 µM (inactive) | 16.1 µM (inactive) | 22.1 µM (inactive) | 10.4 µM (inactive) | 14.7 µM (inactive) | 24.6 µM (inactive) | 17.1 µM (inactive) | 12.6 µM (inactive) | 24.9 µM (inactive) | 16.7 µM (inactive) | 29.2 µM (inactive) | 10.8 µM (inactive) |
| COC1C(O)C(O[C@H]2CC[C@@]3(C)C(CC[C@@H]4[C@@H]3CC[C@]3(C)[C@@H](C(C)OC5OC(CO)C(O)C(O)C5O)CC[C@]43O)C2)OC(C)C1OC1OC(CO)C(O)C(O)C1O (stereo not given in full) | > 100 µM (inactive) | > 100 µM (inactive) | > 100 µM (inactive) | > 100 µM (inactive) | > 100 µM (inactive) | > 100 µM (inactive) | > 100 µM (inactive) | > 100 µM (inactive) | > 100 µM (inactive) | > 100 µM (inactive) | > 100 µM (inactive) | > 100 µM (inactive) | > 100 µM (inactive) | > 100 µM (inactive) | > 100 µM (inactive) | > 100 µM (inactive) | > 100 µM (inactive) | > 100 µM (inactive) | > 100 µM (inactive) | > 100 µM (inactive) |
| Cc1cc(C)nc(SC(C)C(=O)N/N=C/c2ccc(OCc3ccccc3)cc2)n1 (stereo not given) | 7.41 µM (inactive) | 18.9 µM (inactive) | 19.1 µM (inactive) | 36 µM (inactive) | 31.3 µM (inactive) | 14.5 µM (inactive) | 41.5 µM (inactive) | 7.89 µM (inactive) | 17 µM (inactive) | 26.7 µM (inactive) | 54.8 µM (inactive) | 22.1 µM (inactive) | 14.5 µM (inactive) | 30.4 µM (inactive) | 36.8 µM (inactive) | 9.53 µM (inactive) | 48.5 µM (inactive) | 21.6 µM (inactive) | 33 µM (inactive) | 32.1 µM (inactive) |
| N#Cc1c(Cl)nc2ccccc2c1N=[N+]=[N-] | 12.7 µM (inactive) | 12.5 µM (inactive) | 8.55 µM (inactive) | 17.3 µM (inactive) | 5.14 µM (inactive) | 1.92 µM (inactive) | 15.5 µM (inactive) | 0.875 µM (active) | 5.19 µM (inactive) | 7.38 µM (inactive) | 1.95 µM (inactive) | 1.67 µM (inactive) | 2.63 µM (inactive) | 3.02 µM (inactive) | 2.84 µM (inactive) | 2.47 µM (inactive) | 14.8 µM (inactive) | 1.91 µM (inactive) | 8.67 µM (inactive) | 4.71 µM (inactive) |
| NS(=O)(=O)c1ccc(NC(=O)Nc2cccc3ccccc23)cc1 | > 100 µM (inactive) | 27.2 µM (inactive) | 35.6 µM (inactive) | 34.4 µM (inactive) | 45.5 µM (inactive) | 60.3 µM (inactive) | 42.8 µM (inactive) | 72.3 µM (inactive) | 18.3 µM (inactive) | 81.8 µM (inactive) | 53.6 µM (inactive) | 43.1 µM (inactive) | 23.6 µM (inactive) | 20.9 µM (inactive) | 86.9 µM (inactive) | 33.5 µM (inactive) | 21.1 µM (inactive) | > 100 µM (inactive) | 22.5 µM (inactive) | 16.1 µM (inactive) |
| N[C@H]1CCCC[C@@H]1N1C(=O)c2ccccc2C1(O)c1ccc(Cl)cc1 (stereo not given in full) | 4.15 µM (inactive) | 15.9 µM (inactive) | 16 µM (inactive) | 14.5 µM (inactive) | 13.7 µM (inactive) | 4.75 µM (inactive) | 15.7 µM (inactive) | 13.9 µM (inactive) | 12.6 µM (inactive) | 6.5 µM (inactive) | 12.6 µM (inactive) | 9.38 µM (inactive) | 13 µM (inactive) | 15.4 µM (inactive) | 9.44 µM (inactive) | 4.99 µM (inactive) | 14 µM (inactive) | 15 µM (inactive) | 1.31 µM (inactive) | 11.6 µM (inactive) |
| CCCNC1=C2CC(C)CC(OC)[C@@H](O)[C@H](C)/C=C(\C)C(OC(N)=O)C(OC)/C=C\C=C(/C)C(=O)NC(=CC1=O)C2=O (stereo not given in full) | 0.0975 µM (active) | 0.551 µM (active) | 0.222 µM (active) | 0.245 µM (active) | 0.0809 µM (active) | 0.0101 µM (active) | 0.101 µM (active) | 0.31 µM (active) | 0.579 µM (active) | 0.274 µM (active) | 0.498 µM (active) | 0.103 µM (active) | 0.054 µM (active) | 0.337 µM (active) | 0.561 µM (active) | 0.476 µM (active) | 0.637 µM (active) | 0.129 µM (active) | 0.318 µM (active) | 2.94 µM (inactive) |
| Cc1c(C)n(-c2ccccc2)c2nc([S+](C)[O-])nc([S+](C)[O-])c12 (stereo not given) | 11.8 µM (inactive) | 17.9 µM (inactive) | 17.6 µM (inactive) | 18.4 µM (inactive) | 8.28 µM (inactive) | 6.05 µM (inactive) | 18.5 µM (inactive) | 0.809 µM (active) | 8.53 µM (inactive) | 3.1 µM (inactive) | 3.79 µM (inactive) | 1.81 µM (inactive) | 6.03 µM (inactive) | 4.09 µM (inactive) | 2.21 µM (inactive) | 2.44 µM (inactive) | 17.1 µM (inactive) | 4.68 µM (inactive) | 9.1 µM (inactive) | 7.74 µM (inactive) |
| O=[N+]([O-])c1ccc2nc(=S)[nH]n2c1 | > 100 µM (inactive) | > 100 µM (inactive) | > 100 µM (inactive) | > 100 µM (inactive) | > 100 µM (inactive) | > 100 µM (inactive) | > 100 µM (inactive) | > 100 µM (inactive) | > 100 µM (inactive) | > 100 µM (inactive) | > 100 µM (inactive) | > 100 µM (inactive) | > 100 µM (inactive) | > 100 µM (inactive) | > 100 µM (inactive) | > 100 µM (inactive) | > 100 µM (inactive) | > 100 µM (inactive) | > 100 µM (inactive) | > 100 µM (inactive) |
| O=C(O)c1nnsc1-c1csnn1 | > 100 µM (inactive) | > 100 µM (inactive) | > 100 µM (inactive) | > 100 µM (inactive) | > 100 µM (inactive) | > 100 µM (inactive) | > 100 µM (inactive) | 54.6 µM (inactive) | > 100 µM (inactive) | > 100 µM (inactive) | > 100 µM (inactive) | > 100 µM (inactive) | > 100 µM (inactive) | > 100 µM (inactive) | > 100 µM (inactive) | > 100 µM (inactive) | > 100 µM (inactive) | > 100 µM (inactive) | > 100 µM (inactive) | > 100 µM (inactive) |
| O=C(NCc1cccnc1)NCc1cccnc1 | > 100 µM (inactive) | 58.9 µM (inactive) | > 100 µM (inactive) | > 100 µM (inactive) | > 100 µM (inactive) | > 100 µM (inactive) | > 100 µM (inactive) | > 100 µM (inactive) | > 100 µM (inactive) | > 100 µM (inactive) | > 100 µM (inactive) | > 100 µM (inactive) | > 100 µM (inactive) | > 100 µM (inactive) | > 100 µM (inactive) | > 100 µM (inactive) | > 100 µM (inactive) | > 100 µM (inactive) | > 100 µM (inactive) | > 100 µM (inactive) |
| C=C1[C@H](OCC(C)C)[C@@H](OC(=O)C(C)CC)[C@@H](O)C(C)(C)/C=C/[C@H](C)C(=O)[C@@]2(O)C[C@H](C)[C@H](O)[C@@H]2[C@H]1OC(=O)C(C)CC (stereo not given in full) | 5.22 µM (inactive) | 5.73 µM (inactive) | 2.39 µM (inactive) | 2.17 µM (inactive) | 7.29 µM (inactive) | 2.56 µM (inactive) | 19.7 µM (inactive) | 3.84 µM (inactive) | 5.82 µM (inactive) | 1.7 µM (inactive) | 7.98 µM (inactive) | 4.2 µM (inactive) | 3.92 µM (inactive) | 9.98 µM (inactive) | 2.15 µM (inactive) | > 13.1 µM (inactive) | 14.5 µM (inactive) | 4.99 µM (inactive) | 1.41 µM (inactive) | 0.499 µM (active) |
